The Biogen ADME set (Fang et al. 2023)
Converted amounts (≈) assume the structure as drawn.

Conditions: for aqueous solubility: pH 6.8

MDR1-MDCK efflux ratio	intrinsic clearance, human liver microsomes	intrinsic clearance, rat liver microsomes	aqueous solubility	fraction unbound, human plasma	fraction unbound, rat plasma	SMILES
2.08	≤ 4.74 mL/min/kg	≤ 10.7 mL/min/kg	15.7 µg/mL (≈ 55.4 µM)	–	–	O=C(O)c1cc(/C=C/c2csnn2)nc2ccccc12
0.485	44.5 mL/min/kg	631 mL/min/kg	29.7 µg/mL (≈ 81.9 µM)	–	–	COc1ccc2nc(CN3CCC(O)(c4ccc(C)cc4)CC3)ccc2c1
–	161 mL/min/kg	443 mL/min/kg	–	–	–	COc1cc(Nc2c(C#N)cnc3cc(OC)c(OC)cc23)c(Cl)cc1Cl
1.9	≤ 4.74 mL/min/kg	12.1 mL/min/kg	50 µg/mL (≈ 187 µM)	–	–	Cn1ccc(CN2C(=O)c3ccccc3C2=O)cc1=O
3.85	5.88 mL/min/kg	198 mL/min/kg	45.8 µg/mL (≈ 115 µM)	–	–	COc1cc(Nc2cc(-c3cccc(C#N)c3)ccn2)ccc1N1CCN(C)CC1
0.885	88.9 mL/min/kg	971 mL/min/kg	35.4 µg/mL (≈ 103 µM)	–	–	Fc1ccc2[nH]c(CO[C@H]3CN(Cc4ccccc4)C[C@H]3F)nc2c1
0.655	≤ 4.74 mL/min/kg	44.2 mL/min/kg	38 µg/mL (≈ 146 µM)	–	–	COc1ccnc(N2CC(n3nc(C)cc3C)C2)n1
78.4	46.1 mL/min/kg	381 mL/min/kg	–	–	–	O=C1CCCN1CCCc1nc(Cc2c(Cl)cccc2Cl)n[nH]1
2.45	32.6 mL/min/kg	776 mL/min/kg	–	–	–	O=C(CC/C=C/c1ccccc1)Nc1ccccc1N1CCOC1=O
2	6.35 mL/min/kg	553 mL/min/kg	46.7 µg/mL (≈ 173 µM)	–	–	Cc1ccccc1N(CC(=O)N(C)C)S(C)(=O)=O
1.24	17.4 mL/min/kg	80.6 mL/min/kg	56.2 µg/mL (≈ 205 µM)	–	–	c1nc(NC2CCN(C3CC3)CC2)c2sccc2n1
28.3	≤ 4.74 mL/min/kg	366 mL/min/kg	57.5 µg/mL (≈ 160 µM)	–	–	CCCCc1nc2cc(/C=C/C(=O)NO)ccc2n1CCN(CC)CC
–	130 mL/min/kg	1910 mL/min/kg	–	–	–	Cc1cc(CSCc2c(C)noc2C)no1
–	19.9 mL/min/kg	186 mL/min/kg	–	–	–	Cc1ccc2[nH]c(CNC(=O)c3cc(C(F)F)nn3C)nc2c1C
1.1	45.2 mL/min/kg	867 mL/min/kg	65.6 µg/mL (≈ 223 µM)	–	–	O=C(NCc1cccnc1)c1sccc1-c1ccccc1

Further lines, the molecule ahead of its results:

SMILES	MDR1-MDCK efflux ratio	intrinsic clearance, human liver microsomes	intrinsic clearance, rat liver microsomes	aqueous solubility	fraction unbound, human plasma	fraction unbound, rat plasma
CN(Cc1cccnc1)Cc1ccc(C#N)o1	0.648	9.78 mL/min/kg	69.7 mL/min/kg	30.7 µg/mL (≈ 135 µM)	–	–
Cc1[nH]nc(CCC(=O)NCCCOC2CCCC2)c1C	14.4	33.6 mL/min/kg	2410 mL/min/kg	–	–	–
Cc1ccc2c(c1)c(Cn1ccnc1-c1cccc(C)n1)nn2C	0.679	122 mL/min/kg	1920 mL/min/kg	32.9 µg/mL (≈ 103 µM)	–	–
Cc1cc(C)cc(C(=O)Nc2nn(C(C)(C)C)cc2C#N)c1	2.1	11.2 mL/min/kg	270 mL/min/kg	38.6 µg/mL (≈ 130 µM)	–	–
CCCN(CCc1cccs1)[C@H]1CCc2c(O)cccc2C1	0.512	98.1 mL/min/kg	3810 mL/min/kg	–	–	–
O=C(C1CCCN(S(=O)(=O)c2ccccc2)C1)N1CCc2ccccc2C1 (stereo not drawn)	–	240 mL/min/kg	3170 mL/min/kg	33.9 µg/mL (≈ 88 µM)	–	–
Cc1ncc(CN(C)c2nnc(C)c(C)c2C#N)s1	–	–	–	28.6 µg/mL (≈ 105 µM)	–	–
COc1cc2c(cc1OC)CN(C(=O)C1CCCN(S(=O)(=O)c3ccc(F)cc3)C1)CC2 (stereo not drawn)	5.4	150 mL/min/kg	1220 mL/min/kg	7.05 µg/mL (≈ 15.2 µM)	–	–
Cn1cnc2ncn(Cc3nc(CCc4ccc(Cl)cc4)no3)c(=O)c21	15.7	18 mL/min/kg	214 mL/min/kg	–	–	–
CN(Cc1ccccc1N1CCCC1)C(=O)c1cccc(Cn2ccnc2)c1	21.7	392 mL/min/kg	1520 mL/min/kg	61.6 µg/mL (≈ 164 µM)	–	–
c1ccc(C(c2ccccc2)c2noc(Cn3cnc(C4CC4)n3)n2)cc1	1.14	38 mL/min/kg	1510 mL/min/kg	26.3 µg/mL (≈ 73.6 µM)	–	–
CN(C(=O)OC(C)(C)C)c1ccc2ccccc2n1	0.472	–	–	0.28 µg/mL (≈ 1.08 µM)	–	–
O=C(NCCN1C(=O)CSC1=O)c1cc(Cl)c2c(c1)OCO2	2.69	13 mL/min/kg	83 mL/min/kg	39.6 µg/mL (≈ 116 µM)	–	–
N#CCCN(C(=O)c1cccs1)C12CC3CC(CC(C3)C1)C2	0.531	262 mL/min/kg	2310 mL/min/kg	7.2 µg/mL (≈ 22.9 µM)	–	–
COc1ccc(-c2ccc(CN(CCN3CCOCC3)Cc3cccnc3)cc2)cc1	1.48	447 mL/min/kg	1580 mL/min/kg	63.2 µg/mL (≈ 151 µM)	–	–
Cc1ccc(C(=O)Nc2ccccc2C(C)(C)C)cn1	0.696	≤ 4.74 mL/min/kg	30.4 mL/min/kg	32 µg/mL (≈ 119 µM)	–	–
Cc1ccc(NC(=O)c2cc(-c3ccccn3)nc3ccccc23)nc1	–	–	–	0.18 µg/mL (≈ 0.529 µM)	–	–
NC(=O)C1(CCCc2ccccn2)CCNCC1	–	≤ 4.74 mL/min/kg	84.3 mL/min/kg	38.7 µg/mL (≈ 156 µM)	–	–
CCN(Cc1nc2cc(Cl)ccc2c(=O)[nH]1)C(=O)COc1ccccc1Cc1ccccc1	–	225 mL/min/kg	1470 mL/min/kg	1.22 µg/mL (≈ 2.64 µM)	–	–
Cc1nccc(-c2cn(Cc3ccccc3)c3cnccc23)n1	0.675	51.4 mL/min/kg	2130 mL/min/kg	33.7 µg/mL (≈ 112 µM)	0.133	0.161
Cc1ncsc1CN1CCCN(c2nc3ccccc3[nH]2)CC1	50.4	36.5 mL/min/kg	518 mL/min/kg	51.9 µg/mL (≈ 158 µM)	–	–
O=S(=O)(c1cccc2c(O)nccc12)N1CCCNCC1	8.23	≤ 4.74 mL/min/kg	191 mL/min/kg	–	0.708	0.979
CC1=C(C(=O)OCc2ccc3c(c2)OCO3)C(c2ccccc2)NC(=O)N1 (stereo not drawn)	–	–	–	1.88 µg/mL (≈ 5.12 µM)	–	–
CC(C)n1cc(-c2ccc3c(c2)N(C)CC3)c2c(NS(=O)(=O)c3ccn(C)n3)ccnc21	2.48	69.5 mL/min/kg	115 mL/min/kg	19.4 µg/mL (≈ 43.1 µM)	–	–
O=C1N=C2C=CC=CN2C12Cc1ccccc1C2	4.09	≤ 4.74 mL/min/kg	≤ 10.7 mL/min/kg	37.4 µg/mL (≈ 158 µM)	–	–
